PMC11486602 (The New phytologist, 2024)

Tests used:
[1] = target: T1, PROTODERMAL FACTOR2 (PDF2) (Arabidopsis thaliana, UniProt Q93V99); experiment: microscale thermophoresis with […] DOPC/LysoPC […] liposomes; format: binding
T1 sequence (Q93V99 244-476 limits assumed): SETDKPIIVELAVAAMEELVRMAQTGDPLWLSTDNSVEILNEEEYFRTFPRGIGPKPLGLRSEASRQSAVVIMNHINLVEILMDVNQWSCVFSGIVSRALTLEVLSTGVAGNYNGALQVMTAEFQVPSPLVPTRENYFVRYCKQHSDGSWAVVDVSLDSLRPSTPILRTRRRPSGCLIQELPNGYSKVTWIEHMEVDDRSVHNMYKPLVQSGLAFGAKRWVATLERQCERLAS

[2] = target: PROTODERMAL FACTOR2 (PDF2), pdf2(START)^L467P (Arabidopsis thaliana, UniProt Q93V99, L467P); experiment: as above; format: binding
Sequence of PROTODERMAL FACTOR2 (PDF2), pdf2(START)^L467P (Q93V99 244-476 L467P): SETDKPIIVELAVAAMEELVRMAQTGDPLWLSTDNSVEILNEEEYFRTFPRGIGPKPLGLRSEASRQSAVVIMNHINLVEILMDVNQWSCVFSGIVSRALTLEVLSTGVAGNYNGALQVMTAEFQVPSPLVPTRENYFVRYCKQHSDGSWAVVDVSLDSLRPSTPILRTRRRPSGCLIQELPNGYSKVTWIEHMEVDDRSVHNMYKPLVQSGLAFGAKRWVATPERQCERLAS

Q: How did the Kd [1] turn out when LysoPC 18:1 was run?
A: Its Kd is 17 µM.

Q: What about the Kd [2] of the same substance?
A: The Kd was 200 µM.
